Reference: publication PMC4947679, “Quantitative In Vitro and In Vivo Evaluation of Intestinal and Blood-Brain Barrier Transport Kinetics of the Plant N-Alkylamide Pellitorine” (BioMed Research International, 2016)
Like-named read-outs stand apart in the source and are kept apart here.

Assays:
fatty acid uptake = test system: fatty acid uptake; set-up: method as in PMID 25422952; details: in vitro; cited from earlier work
[1] = set-up: method as in PMID 24055064; details: cited from earlier work
[2] = Oral gavage pharmacokinetic experiment with rats; assay type: in vivo, Wistar rats; details: rat
Method: Male and female Wistar rats weighing approximately 220 g were obtained from Bharat Serum and Vaccines Pvt. Ltd., Thane, India (registration number 103/99/CPCSEA) and were housed at CU Shah College of Pharmacy, SNDT Women's University, Santacruz, Mumbai, India (registration number 39/99/CPCSEA) where the experiments were carried out. Rats of 7-8 weeks of age were fasted overnight and used for the experiments.
A pellitorine dose solution was prepared using the Anacyclus pyrethrum extract. To the rats, 1.5 mL of a 0.73 mg pellitorine/g dose solution in 10 : 20 : 30 : 40 (w/w/w/w) EtOH : PG : Vit E-TPGS : PEG 400 was administered using a gavage needle (stainless steel, length of 3 inches, and 2.5 mm internal diameter). As blank, a solution containing EtOH, PG, Vit E-TPGS, and PEG without pellitorine was used. Each dose solution was orally administered to three female and three male rats. 1.5 mL blood was collected from the retro orbital vein at 1, 2, 3, 4, 6, and 8 h after administration of the dose solution and was centrifuged for 20 min at room temperature. Thereafter, the serum samples were immediately frozen at −80°C until bioanalysis. The animals were sacrificed at the end of the experiment by CO2 inhalation. Using GraphPad software (La Jolla, USA), the elimination rate constant k e (h^−1) is calculated using the following equation of a one-compartment model: C(t) = C 0 × e ^−ke×t, in which C(t) (ng/mL) is the concentration of pellitorine at time t (h) and C 0 the concentration of pellitorine at time t = 0 (ng/mL). The elimination half-life t 1/2,e (h) is calculated as ln(2)/k e.

[3] = Brain-to-blood transport after intracerebroventricular injection in mice; assay type: in vivo, ICR-CD-1 mice
Method: To evaluate the efflux of pellitorine out of the brain into the blood, a previously described in vivo method was used. Briefly, the ICR-CD-1 mice were anesthetized with 40% (w/V) urethane solution (3 g/kg). Then, the skin of the skull was removed and a hole was made into the lateral ventricle using a 22 G needle marked with tape at 2 mm at the following coordinates: 1 mm lateral and 0.34 mm posterior to the bregma. Using a syringe pump (KDS100, KR analytical, Cheshire, UK), 1 μL of the 1.8 mg/mL pellitorine dose solution as used for the blood-to-brain influx experiment was injected intracerebroventriculary (ICV) at a speed of 360 μL/h for 10 s. […] Just before decapitation, blood was collected from the abdominal aorta and serum was obtained by centrifuging the blood at 10 000 ×g during 15 min at 21°C. Thereafter, brains were collected. The natural logarithm of the pellitorine concentration in brain (ng/g) was plotted versus time. The efflux rate constant k out (min^−1) is obtained from the negative value of the slope of the linear regression, applying first-order kinetics. From k out, the efflux brain half-life (t 1/2,brain) (min) is calculated as follows: t 1/2,brain = ln(2)/k out.

[4] = In vitro metabolic stability; assay type: in vitro ADME; details: pH 7.4; one hour, 37°C; mouse serum, brain homogenate and liver homogenate
Method: The in vitro metabolic stability of pellitorine was evaluated in mouse brain and liver homogenates and mouse serum according to previously described protocols. Using the Pierce Modified Lowry Protein Assay method (Thermo Scientific), the protein content of each tissue homogenate was determined to prepare a stock solution containing a 0.6 mg/mL protein concentration in Krebs-Henseleit buffer (pH 7.4). […] After 0, 5, 7.5, 15, 60, and 120 min, aliquots of 100 μL were taken and transferred into 0.5 mL tubes (LoBind Eppendorf) containing 100 μL of 1% (V/V) TFA in water. Next, the samples were heated at 95°C for 5 min and subsequently cooled for 30 min in ice. Thereafter, the samples were centrifuged (20 000 ×g for 30 min at 5°C) and 25 μL of the clear supernatant was injected and analysed using a HPLC-UV/MS method of 46 min which was previously described. The HPLC-MS analysis was done on a HPLC system which consisted of a Spectra System SN4000 interface, a Spectra System SCM1000 degasser, a Spectra System P1000XR pump, a Spectra System AS3000 autosampler, and a Finnigan LCQ Classic ion trap mass spectrometer in positive ion mode (all from Thermo, San José, CA, USA) equipped with Waters 2487 Dual Absorbance detector and Xcalibur 2.0 software (Thermo) for data acquisition. Control solutions were also prepared but without pellitorine. […]

[5] = set-up: method as in PMID 25481393; details: cited from earlier work

k el ([2]; both sexes, Wistar, serum, po, 5 mg pellitorine/kg, oral gavage, 5 mg pellitorine/kg (Anacyclus pyrethrum extract dose solution), one-compartment model, read-out: serum elimination rate constant k e (converted)): 8.33e-05 s⁻¹
half-life ([2]; both sexes, Wistar, serum, oral gavage, 5 mg pellitorine/kg, one-compartment model, read-out: elimination half-life t 1/2,e (converted)): 148 min
maximum serum concentration ([2]; oral administration of 5 mg pellitorine/kg): 26 ng/mL
serum elimination rate constant k e ([2]; oral gavage, 5 mg pellitorine/kg (Anacyclus pyrethrum extract dose solution), one-compartment model): 0.28 h⁻¹
efflux transfer constant k out [3]: 0.05 min⁻¹
half-life ([3]; female, ICR-CD-1, mouse, icv or intrathecal, 1.8 μg/mouse, read-out: efflux brain half-life t 1/2,brain): 13.8 min
recovery at 1 h, 0.025 mg/mL [4]: 91 to 105%
Structure (SMILES): CCCCC/C=C/C=C/C(=O)NCC(C)C [pellitorine, deca-2E,4E-dienoic acid isobutylamide]
fatty acid uptake (fatty acid uptake): reduces fatty acid uptake
log P [1]: 3.65
aqueous permeability coefficient K p,aq ([5]; pellitorine from crude plant extract): 2.3 10^−4 cm/h
aqueous permeability coefficient K p,aq ([5]; purified pellitorine): 1.1 10^−4 cm/h
